Target: E. coli dihydrofolate reductase (DHFR) (Escherichia coli, UniProt P0ABQ4)
Test: steady-state kinetics dose response
Type: biochemical

Sequence of E. coli dihydrofolate reductase (DHFR) (P0ABQ4 whole entry): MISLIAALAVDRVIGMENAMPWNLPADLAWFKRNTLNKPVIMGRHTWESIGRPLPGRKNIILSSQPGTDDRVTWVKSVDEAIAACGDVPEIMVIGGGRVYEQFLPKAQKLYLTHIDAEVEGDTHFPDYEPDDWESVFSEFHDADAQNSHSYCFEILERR

COc1cc2c(Nc3ccc(Br)cc3F)ncnc2cc1OCC1CCN(C)CC1 [NSC760766, Vandetanib]
IC50: ~39 µM

Reference: PMC8243409 (Journal of chemical information and modeling, 2021)
